Assays:
[1] = system: giant foxtail; test: Test A pre-/postemergence herbicide test; assay type: in vivo, Setaria faberii
In short: (§1)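 Greenhouse pot test with pre- and postemergence application of surfactant-containing solvent formulations. Postemergence plants were 2–10 cm, one- to two-leaf stage. Response scored visually after ~10 days, 0 (no effect) to 100 (complete control).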

[2] = system: pigweed; test: Test A pre-/postemergence herbicide test; assay type: in vivo, Amaranthus retroflexus
In short: as §1

[3] = system: corn; test: Test A pre-/postemergence herbicide test; assay type: in vivo, Zea mays; settings: Postemergence
In short: as §1

[4] = system: rice; test: Test B flooded paddy test; assay type: in vivo, Oryza sativa; settings: 500 g ai/ha, Flood; scale of 0 to 100 where 0 is no effect and 100 is complete control
In short: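 Treatment was made at the 2-leaf stage by dosing the standing floodwater, kept 3 cm above soil level for the whole test. Greenhouse exposure lasted 13 to 15 days. Response is a visual percent rating relative to controls, where a dash indicates no test result.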

[5] = system: ryegrass, Italian; test: Test C pre-/postemergence herbicide test; assay type: in vivo, Lolium multiflorum
In short: (§2)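 Greenhouse pots; formulation = non-phytotoxic solvent mix + surfactant. PRE onto seeds in loam:sand; POST at 1–4 leaves (2–18 cm) in peat moss/vermiculite medium. Read-out: visual % control vs untreated, day 13–15.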

[6] = system: galium; test: Test C pre-/postemergence herbicide test; assay type: in vivo, Galium aparine; settings: Preemergence
In short: as §2

[7] = system: johnsongrass; test: Test C pre-/postemergence herbicide test; assay type: in vivo, Sorghum halepense
In short: as §2

[8] = system: nutsedge, yellow; test: Test C pre-/postemergence herbicide test; assay type: in vivo, Cyperus esculentus
In short: as §2

[9] = system: pigweed; test: Test C pre-/postemergence herbicide test; assay type: in vivo, Amaranthus retroflexus
In short: as §2

[10] = system: ragweed; test: Test C pre-/postemergence herbicide test; assay type: in vivo, Ambrosia elatior
In short: as §2

[11] = system: waterhemp; test: Test C pre-/postemergence herbicide test; assay type: in vivo, Amaranthus rudis
In short: as §2

[12] = Postemergence, 125 g ai/ha, visual rating on 0 to 100 scale (0 no effect, 100 complete control), approx. 10 days
[13] = Postemergence, 500 g ai/ha, 0 to 100 scale (0 no effect, 100 complete control)
[14] = Preemergence, 125 g ai/ha, 0 to 100 scale where 0 is no effect and 100 is complete control
[15] = Preemergence, 500 g ai/ha, visual rating on 0 to 100 scale (0 no effect, 100 complete control)
[16] = Postemergence, 31 g ai/ha, scale 0 to 100 (0 no effect, 100 complete control)
[17] = Postemergence, 62 g ai/ha, scale 0 (no effect) to 100 (complete control)
[18] = Postemergence, 125 g ai/ha, scale 0 to 100 (0 no effect, 100 complete control)
[19] = Postemergence, 250 g ai/ha, scale 0 to 100 (0 no effect, 100 complete control)
[20] = Preemergence, 31 g ai/ha, scale 0 to 100, 0 is no effect and 100 is complete control
[21] = Preemergence, 62 g ai/ha, scale 0 to 100 (0 no effect, 100 complete control)
[22] = Preemergence, 125 g ai/ha, scale 0 to 100 (0 no effect, 100 complete control)

Structure (SMILES): CN1CC(c2ccc(F)c(F)c2)C(C(=O)Nc2cccc(F)c2F)C1=O (stereo not drawn) [Compound 303]
- Plant response rating, Foxtail, Giant [1, 12]: 80
- Plant response rating, Foxtail, Giant [1, 13]: 80
- Plant response rating, Foxtail, Giant [1, 14]: 90
- Foxtail, Giant plant response rating [1, 15]: 90
- Plant response rating, Pigweed [2, 12]: 40
- Plant response rating, Pigweed [2, 13]: 60
- Plant response rating, Pigweed [2, 14]: 20
- Pigweed plant response rating [2, 15]: 50
- Plant response rating, Corn ([3]; 125 g ai/ha, visual rating on 0 to 100 scale (0 no effect, 100 complete control), approx. 10 days): 50
- Plant response rating, Corn ([3]; 500 g ai/ha, 0 to 100 scale (0 no effect, 100 complete control)): 70
- Plant response rating, Rice [4]: 30
- Plant response rating, Ryegrass, Italian [5, 16]: 0
- Plant response rating, Ryegrass, Italian [5, 17]: 0
- Plant response rating, Ryegrass, Italian [5, 18]: 0
- Plant response rating, Ryegrass, Italian [5, 19]: 5
- Ryegrass, Italian plant response rating [5, 20]: 30
- Ryegrass, Italian plant response rating [5, 21]: 35
- Plant response rating, Ryegrass, Italian [5, 22]: 70
- Plant response rating (scale of 0 to 100), Ryegrass, Italian ([5]; Preemergence, 250 g ai/ha): 75
- Galium plant response rating ([6]; 31 g ai/ha, scale 0 to 100, 0 is no effect and 100 is complete control): 90
- Galium plant response rating ([6]; 62 g ai/ha, scale 0 to 100 (0 no effect, 100 complete control)): 0
- Plant response rating, Galium ([6]; 125 g ai/ha, scale 0 to 100 (0 no effect, 100 complete control)): 85
- Plant response rating (scale of 0 to 100), Galium ([6]; 250 g ai/ha): 85
- Plant response rating, Johnsongrass [7, 16]: 0
- Plant response rating, Johnsongrass [7, 17]: 0
- Plant response rating, Johnsongrass [7, 18]: 0
- Plant response rating, Johnsongrass [7, 19]: 5
- Johnsongrass plant response rating [7, 20]: 0
- Johnsongrass plant response rating [7, 21]: 55
- Plant response rating, Johnsongrass [7, 22]: 65
- Plant response rating (scale of 0 to 100), Johnsongrass ([7]; Preemergence, 250 g ai/ha): 80
- Plant response rating, Nutsedge, Yellow [8, 16]: 0
- Plant response rating, Nutsedge, Yellow [8, 17]: 0
- Plant response rating, Nutsedge, Yellow [8, 18]: 0
- Plant response rating, Nutsedge, Yellow [8, 19]: 0
- Nutsedge, Yellow plant response rating [8, 20]: 0
- Nutsedge, Yellow plant response rating [8, 21]: 0
- Plant response rating, Nutsedge, Yellow [8, 22]: 0
- Plant response rating (scale of 0 to 100), Nutsedge, Yellow ([8]; Preemergence, 250 g ai/ha): 25
- Plant response rating, Pigweed [9, 16]: 0
- Plant response rating, Pigweed [9, 17]: 0
- Plant response rating, Pigweed [9, 18]: 10
- Plant response rating, Pigweed [9, 19]: 25
- Pigweed plant response rating [9, 20]: 35
- Pigweed plant response rating [9, 21]: 55
- Plant response rating, Pigweed [9, 22]: 65
- Plant response rating (scale of 0 to 100), Pigweed ([9]; Preemergence, 250 g ai/ha): 80
- Plant response rating, Ragweed [10, 16]: 0
- Plant response rating, Ragweed [10, 17]: 0
- Plant response rating, Ragweed [10, 18]: 40
- Plant response rating, Ragweed [10, 19]: 55
- Ragweed plant response rating [10, 20]: 5
- Ragweed plant response rating [10, 21]: 70
- Plant response rating, Ragweed [10, 22]: 75
- Plant response rating (scale of 0 to 100), Ragweed ([10]; Preemergence, 250 g ai/ha): 80
- Plant response rating, Waterhemp [11, 16]: 0
- Plant response rating, Waterhemp [11, 17]: 35
- Plant response rating, Waterhemp [11, 18]: 0
- Plant response rating, Waterhemp [11, 19]: 25
- Waterhemp plant response rating [11, 20]: 40
- Waterhemp plant response rating [11, 21]: 65
- Plant response rating, Waterhemp [11, 22]: 65
- Plant response rating (scale of 0 to 100), Waterhemp ([11]; Preemergence, 250 g ai/ha): 75
